{
  "source": "ChEMBL document CHEMBL4840351",
  "about": "(J Med Chem, 2021)",
  "key": {"TMD8 [1]": {"test_system": "TMD8", "experiment": "Induction of apoptosis in human TMD8 cells at 30 nM incubated for 72 hrs by Annexin V-FITC/PI staining based flow cytometric analysis (reference value: 13.4 %)", "type": "functional"}, "[2]": {"molecular_target": "Tyrosine-protein kinase Blk (Homo sapiens, UniProt P51451)", "sequence (P51451 whole entry)": "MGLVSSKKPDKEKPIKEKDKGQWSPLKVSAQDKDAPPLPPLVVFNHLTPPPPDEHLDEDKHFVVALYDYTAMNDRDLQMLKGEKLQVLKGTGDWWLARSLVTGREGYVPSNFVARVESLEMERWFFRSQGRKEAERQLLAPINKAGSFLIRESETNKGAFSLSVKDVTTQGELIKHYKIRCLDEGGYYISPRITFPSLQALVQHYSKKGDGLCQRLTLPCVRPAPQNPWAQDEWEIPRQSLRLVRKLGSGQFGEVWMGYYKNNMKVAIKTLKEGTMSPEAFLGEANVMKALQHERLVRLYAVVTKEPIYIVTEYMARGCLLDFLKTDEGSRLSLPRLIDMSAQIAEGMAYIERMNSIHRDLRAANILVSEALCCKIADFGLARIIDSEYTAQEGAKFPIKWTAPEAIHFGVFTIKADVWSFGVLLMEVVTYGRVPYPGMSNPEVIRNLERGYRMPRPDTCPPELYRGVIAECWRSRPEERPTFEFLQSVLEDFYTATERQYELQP", "experiment": "Inhibition of BLK (unknown origin)"}, "[3]": {"experiment": "Cmax in Sprague-Dawley rat at 5 mg/kg, po measured upto 24 hrs by LC/MS/MS analysis", "type": "ADME, organism-based", "design": "route oral, dose 5 mg/kg, time <=24", "details": "in vivo; call rule not given here"}, "Cytochrome P450 2C19": {"molecular_target": "Cytochrome P450 2C19 (Homo sapiens, UniProt P33261)", "sequence (P33261 whole entry)": "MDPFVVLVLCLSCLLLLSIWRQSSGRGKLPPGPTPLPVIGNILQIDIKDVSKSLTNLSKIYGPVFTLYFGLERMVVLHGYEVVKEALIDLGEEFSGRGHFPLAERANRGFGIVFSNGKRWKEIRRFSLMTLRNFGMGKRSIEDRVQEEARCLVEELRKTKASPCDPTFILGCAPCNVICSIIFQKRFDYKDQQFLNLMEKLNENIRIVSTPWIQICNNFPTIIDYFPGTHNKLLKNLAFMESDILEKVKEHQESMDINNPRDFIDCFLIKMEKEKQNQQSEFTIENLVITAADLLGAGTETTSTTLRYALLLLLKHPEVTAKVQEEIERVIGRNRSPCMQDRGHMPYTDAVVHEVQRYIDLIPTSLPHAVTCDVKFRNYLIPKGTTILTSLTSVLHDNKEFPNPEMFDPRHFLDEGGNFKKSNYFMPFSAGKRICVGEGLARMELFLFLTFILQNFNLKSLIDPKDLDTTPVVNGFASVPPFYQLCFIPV", "experiment": "Inhibition of CYP2C19 in human liver microsomes using S-mephenytoin as substrate incubated for 10 mins in presence of NADPH by LC-MS/MS analysis", "type": "ADME"}, "TMD8 [4]": {"test_system": "TMD8", "experiment": "Induction of cell cycle arrest in human TMD8 cells assessed as accumulation of cells at S phase at 30 nM incubated for 48 hrs by PI staining based flow cytometric analysis (reference value: 37.42 %)", "type": "functional"}, "[5]": {"experiment": "Toxicity in SFP CD-1 mouse assessed as pathological change in visceral organs at 10 to 1280 mg/kg, po administered for 7 days by H and E staining based assay", "type": "organism-based", "details": "in vivo, 168 h, dose 10-1280 mg/kg, time 7 day"}, "TMD8 [6]": {"test_system": "TMD8", "experiment": "Induction of apoptosis in human TMD8 cells at 300 nM incubated for 72 hrs by Annexin V-FITC/PI staining based flow cytometric analysis (reference value: 13.4 %)", "type": "functional"}, "[7]": {"experiment": "AUC in Sprague-Dawley rat at 5 mg/kg, iv measured upto 24 hrs by LC/MS/MS analysis", "type": "ADME, organism-based", "design": "route intravenous, dose 5 mg/kg, time <=24", "details": "in vivo"}, "TMD8 [8]": {"test_system": "TMD8", "experiment": "Induction of cell cycle arrest in human TMD8 cells assessed as accumulation of cells at S phase at 300 nM incubated for 48 hrs by PI staining based flow cytometric analysis (reference value: 37.42 %)", "type": "functional"}, "Rec1": {"test_system": "Rec1", "experiment": "Antiproliferative activity against human REC-1 cells assessed as reduction in cell viability incubated for 72 hrs by celltiter-glo assay", "details": "Rec1, 72 h"}, "[9]": {"molecular_target": "Proto-oncogene tyrosine-protein kinase Src (Homo sapiens, UniProt P12931)", "sequence (P12931 2-536 limits assumed)": "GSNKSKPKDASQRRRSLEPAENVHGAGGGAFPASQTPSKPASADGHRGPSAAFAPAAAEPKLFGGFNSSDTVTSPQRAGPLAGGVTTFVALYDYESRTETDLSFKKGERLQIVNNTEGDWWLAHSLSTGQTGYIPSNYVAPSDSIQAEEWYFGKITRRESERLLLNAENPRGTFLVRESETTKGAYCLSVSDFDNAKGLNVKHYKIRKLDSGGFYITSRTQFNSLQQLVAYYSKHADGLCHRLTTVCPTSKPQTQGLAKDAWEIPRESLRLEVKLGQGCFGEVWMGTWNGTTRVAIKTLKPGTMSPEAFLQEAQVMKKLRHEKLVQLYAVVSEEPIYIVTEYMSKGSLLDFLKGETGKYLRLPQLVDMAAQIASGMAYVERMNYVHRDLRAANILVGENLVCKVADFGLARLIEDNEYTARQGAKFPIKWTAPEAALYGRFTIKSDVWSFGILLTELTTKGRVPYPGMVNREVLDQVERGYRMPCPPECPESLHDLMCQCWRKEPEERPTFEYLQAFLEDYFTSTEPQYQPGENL", "experiment": "Inhibition of SRC (unknown origin)"}, "TMD8 [10]": {"test_system": "TMD8", "experiment": "Antiproliferative activity against human TMD8 cells assessed as reduction in cell viability incubated for 72 hrs by celltiter-glo assay", "details": "TMD8, 72 h"}, "[11]": {"molecular_target": "Tyrosine-protein kinase Lyn (Homo sapiens, UniProt P07948)", "sequence (P07948 whole entry)": "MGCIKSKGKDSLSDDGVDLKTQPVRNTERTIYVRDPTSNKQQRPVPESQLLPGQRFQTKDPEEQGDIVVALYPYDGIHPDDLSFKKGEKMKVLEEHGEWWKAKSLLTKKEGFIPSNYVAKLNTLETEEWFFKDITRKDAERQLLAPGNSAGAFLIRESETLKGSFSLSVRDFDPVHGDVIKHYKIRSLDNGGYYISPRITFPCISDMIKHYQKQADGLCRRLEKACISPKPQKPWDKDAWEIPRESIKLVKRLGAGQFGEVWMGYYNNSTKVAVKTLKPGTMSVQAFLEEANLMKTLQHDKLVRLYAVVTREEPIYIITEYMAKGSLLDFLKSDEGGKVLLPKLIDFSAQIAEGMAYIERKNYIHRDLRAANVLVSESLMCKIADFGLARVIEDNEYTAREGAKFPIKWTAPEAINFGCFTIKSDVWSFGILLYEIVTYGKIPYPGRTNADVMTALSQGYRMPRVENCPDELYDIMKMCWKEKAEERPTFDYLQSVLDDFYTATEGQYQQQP", "experiment": "Inhibition of LYN (unknown origin)"}, "TMD8 [12]": {"test_system": "TMD8", "experiment": "Induction of cell cycle arrest in human TMD8 cells assessed as accumulation of cells at G2 phase at 30 nM incubated for 48 hrs by PI staining based flow cytometric analysis (reference value: 4.92 %)", "type": "functional"}, "[13]": {"molecular_target": "Tyrosine-protein kinase Fyn (Homo sapiens, UniProt P06241)", "sequence (P06241 whole entry)": "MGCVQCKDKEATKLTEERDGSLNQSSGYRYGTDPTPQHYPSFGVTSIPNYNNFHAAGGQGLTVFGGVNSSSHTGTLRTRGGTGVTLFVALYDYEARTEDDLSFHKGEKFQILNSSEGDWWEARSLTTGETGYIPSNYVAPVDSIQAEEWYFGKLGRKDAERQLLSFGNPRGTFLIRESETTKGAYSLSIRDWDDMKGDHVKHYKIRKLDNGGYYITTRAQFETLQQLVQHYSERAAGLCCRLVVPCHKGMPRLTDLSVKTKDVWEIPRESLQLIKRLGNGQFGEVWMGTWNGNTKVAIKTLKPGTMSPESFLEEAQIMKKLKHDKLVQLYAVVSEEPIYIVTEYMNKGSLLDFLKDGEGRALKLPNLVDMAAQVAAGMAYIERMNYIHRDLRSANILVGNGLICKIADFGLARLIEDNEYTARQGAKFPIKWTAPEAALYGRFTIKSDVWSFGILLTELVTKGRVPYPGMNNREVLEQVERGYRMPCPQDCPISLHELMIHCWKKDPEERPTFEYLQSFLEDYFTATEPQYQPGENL", "experiment": "Inhibition of FYN (unknown origin)"}, "[14]": {"experiment": "Toxicity in SFP CD-1 mouse assessed as change in animal color at 10 to 1280 mg/kg, po administered for 7 days", "type": "organism-based", "details": "in vivo, 168 h, dose 10-1280 mg/kg, time 7 day"}, "TMD8 [15]": {"test_system": "TMD8", "experiment": "Induction of cell cycle arrest in human TMD8 cells assessed as accumulation of cells at G1 phase at 3 nM incubated for 48 hrs by PI staining based flow cytometric analysis (reference value: 57.66 %)", "type": "functional"}, "MOLM-13": {"test_system": "MOLM-13", "experiment": "Antiproliferative activity against human MOLM-13 cells assessed as reduction in cell viability incubated for 72 hrs by celltiter-glo assay", "details": "MOLM-13, 72 h"}, "TMD8 [16]": {"test_system": "TMD8", "experiment": "Induction of cell cycle arrest in human TMD8 cells assessed as accumulation of cells at G1 phase at 30 nM incubated for 48 hrs by PI staining based flow cytometric analysis (reference value: 57.66 %)", "type": "functional"}, "[17]": {"experiment": "Drug concentration in ICR mouse plasma at 15 mg/kg, po after 2 hrs", "type": "ADME, organism-based"}, "Cytochrome P450 1A2": {"molecular_target": "Cytochrome P450 1A2 (Homo sapiens, UniProt P05177)", "sequence (P05177 whole entry)": "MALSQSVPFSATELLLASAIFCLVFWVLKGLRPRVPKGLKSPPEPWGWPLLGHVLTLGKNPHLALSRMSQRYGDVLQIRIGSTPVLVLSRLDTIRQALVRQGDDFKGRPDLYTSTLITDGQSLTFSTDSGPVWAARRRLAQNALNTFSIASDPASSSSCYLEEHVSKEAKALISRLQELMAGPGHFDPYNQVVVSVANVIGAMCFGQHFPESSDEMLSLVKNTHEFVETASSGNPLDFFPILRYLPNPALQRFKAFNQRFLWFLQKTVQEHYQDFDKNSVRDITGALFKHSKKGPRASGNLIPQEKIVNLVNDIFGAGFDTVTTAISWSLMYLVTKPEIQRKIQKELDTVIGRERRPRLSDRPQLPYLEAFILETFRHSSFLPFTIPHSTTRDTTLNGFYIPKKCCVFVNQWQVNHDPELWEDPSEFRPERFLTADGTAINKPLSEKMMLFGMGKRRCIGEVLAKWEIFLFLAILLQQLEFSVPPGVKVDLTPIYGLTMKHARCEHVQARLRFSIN", "experiment": "Inhibition of CYP1A2 in human liver microsomes using phenacetin as substrate incubated for 10 mins in presence of NADPH by LC-MS/MS analysis", "type": "ADME"}, "Cytochrome P450 3A4": {"molecular_target": "Cytochrome P450 3A4 (Homo sapiens, UniProt P08684)", "sequence (P08684 whole entry)": "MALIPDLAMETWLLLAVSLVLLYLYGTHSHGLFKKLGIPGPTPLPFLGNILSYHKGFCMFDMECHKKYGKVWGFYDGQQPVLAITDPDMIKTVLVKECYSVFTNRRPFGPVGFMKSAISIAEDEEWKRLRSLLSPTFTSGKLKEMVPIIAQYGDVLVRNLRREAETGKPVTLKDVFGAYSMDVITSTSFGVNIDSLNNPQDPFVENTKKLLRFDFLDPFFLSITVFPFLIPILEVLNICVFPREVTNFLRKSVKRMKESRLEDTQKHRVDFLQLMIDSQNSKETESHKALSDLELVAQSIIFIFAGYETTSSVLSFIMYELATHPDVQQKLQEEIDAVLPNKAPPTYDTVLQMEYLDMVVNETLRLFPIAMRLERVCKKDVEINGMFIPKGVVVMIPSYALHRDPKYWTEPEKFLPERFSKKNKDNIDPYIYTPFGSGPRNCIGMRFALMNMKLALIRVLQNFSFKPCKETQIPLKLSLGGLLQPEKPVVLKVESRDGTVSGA", "experiment": "Inhibition of CYP3A4M in human liver microsomes using midazolam as substrate incubated for 10 mins in presence of NADPH by LC-MS/MS analysis", "type": "ADME"}, "[18]": {"molecular_target": "Tyrosine-protein kinase Lck (Homo sapiens, UniProt P06239)", "sequence (P06239 whole entry)": "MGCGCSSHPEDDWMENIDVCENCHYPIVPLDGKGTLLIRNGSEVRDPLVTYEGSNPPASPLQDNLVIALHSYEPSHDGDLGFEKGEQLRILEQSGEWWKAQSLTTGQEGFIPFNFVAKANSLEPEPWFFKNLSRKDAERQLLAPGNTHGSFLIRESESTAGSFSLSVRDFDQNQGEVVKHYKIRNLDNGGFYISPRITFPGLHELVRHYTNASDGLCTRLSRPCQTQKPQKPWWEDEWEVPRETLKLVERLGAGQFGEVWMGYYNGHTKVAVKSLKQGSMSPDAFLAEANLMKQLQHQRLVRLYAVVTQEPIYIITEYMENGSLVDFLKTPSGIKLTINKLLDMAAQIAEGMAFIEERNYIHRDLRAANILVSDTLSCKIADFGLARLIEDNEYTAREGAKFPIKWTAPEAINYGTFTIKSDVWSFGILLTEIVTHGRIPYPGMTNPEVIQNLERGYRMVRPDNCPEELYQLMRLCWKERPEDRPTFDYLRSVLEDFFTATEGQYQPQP", "experiment": "Inhibition of LCK (unknown origin)"}, "[19]": {"molecular_target": "Tyrosine-protein kinase Tec (Homo sapiens) (UniProt P42680)", "sequence (P42680 whole entry)": "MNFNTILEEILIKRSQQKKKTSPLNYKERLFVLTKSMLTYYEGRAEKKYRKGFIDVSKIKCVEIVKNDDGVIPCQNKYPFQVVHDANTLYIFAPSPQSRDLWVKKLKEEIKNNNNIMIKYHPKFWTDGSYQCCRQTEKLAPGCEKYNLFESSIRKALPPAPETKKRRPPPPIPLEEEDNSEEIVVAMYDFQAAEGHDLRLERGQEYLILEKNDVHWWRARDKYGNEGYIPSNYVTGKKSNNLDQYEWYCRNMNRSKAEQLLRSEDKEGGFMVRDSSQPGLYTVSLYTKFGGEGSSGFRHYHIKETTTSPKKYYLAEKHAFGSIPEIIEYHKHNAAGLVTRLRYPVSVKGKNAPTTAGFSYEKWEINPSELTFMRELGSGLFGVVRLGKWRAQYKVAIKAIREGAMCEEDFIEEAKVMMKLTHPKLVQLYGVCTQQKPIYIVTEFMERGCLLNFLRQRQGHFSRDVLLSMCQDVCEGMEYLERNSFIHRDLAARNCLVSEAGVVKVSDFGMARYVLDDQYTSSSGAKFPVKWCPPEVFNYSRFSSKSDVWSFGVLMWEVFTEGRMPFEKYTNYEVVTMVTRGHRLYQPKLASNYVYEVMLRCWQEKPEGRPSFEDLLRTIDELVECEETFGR", "experiment": "Inhibition of TEC (unknown origin) at 1 uM relative to control"}, "Ramos": {"test_system": "Ramos", "experiment": "Antiproliferative activity against human Ramos cells assessed as reduction in cell viability incubated for 72 hrs by celltiter-glo assay"}, "[20]": {"experiment": "Receptor occupancy at BTK in PBMC of ICR mouse at 15 mg/kg, po after 1 hr by ELISA", "type": "functional"}, "TMD8 [21]": {"test_system": "TMD8", "experiment": "Induction of cell cycle arrest in human TMD8 cells assessed as accumulation of cells at S phase at 3 nM incubated for 48 hrs by PI staining based flow cytometric analysis (reference value: 37.42 %)", "type": "functional"}, "Pfeiffer": {"test_system": "Pfeiffer", "experiment": "Antiproliferative activity against human Pfeiffer cells assessed as reduction in cell viability incubated for 72 hrs by celltiter-glo assay"}, "[22]": {"experiment": "Cmax in ICR mouse at 15 mg/kg, po after 24 hrs", "type": "ADME, organism-based", "design": "route oral, time 24 hrs, dose 15 mg/kg", "details": "in vivo"}, "[23]": {"experiment": "Receptor occupancy at BTK in spleen of ICR mouse at 15 mg/kg, po after 24 hrs by ELISA", "type": "functional"}, "TMD8 [24]": {"test_system": "TMD8", "experiment": "Induction of cell cycle arrest in human TMD8 cells assessed as accumulation of cells at G1 phase at 300 nM incubated for 48 hrs by PI staining based flow cytometric analysis (reference value: 57.66 %)", "type": "functional"}, "[25]": {"experiment": "Toxicity in SFP CD-1 mouse assessed as change in body weight at 10 to 1280 mg/kg, po administered for 7 days", "type": "organism-based", "details": "in vivo, 168 h, dose 10-1280 mg/kg, time 7 day"}},
  "data": [
    {"compound": "C=CC(=O)N1CCCC[C@H]1c1nc(-c2ccc(C(=O)Nc3cc(C(F)(F)F)ccn3)cc2)c(C(N)=O)n1N", "values": [
      {"measurement": "Activity", "setting": "TMD8 [1]", "value": 19.2, "unit": "%"},
      {"measurement": "IC50", "setting": "[2]", "value": 170, "unit": "nM"},
      {"measurement": "Cmax", "setting": "[3]", "value": 501, "unit": "ng/mL"},
      {"measurement": "IC50", "setting": "Cytochrome P450 2C19", "value": "> 10000", "unit": "nM"},
      {"measurement": "Activity", "setting": "TMD8 [4]", "value": 10.95, "unit": "%"},
      {"measurement": "Activity", "setting": "[5]", "value": "Non-Toxic"},
      {"measurement": "Activity", "setting": "TMD8 [6]", "value": 34.1, "unit": "%"},
      {"measurement": "AUC at 24 h", "setting": "[7]", "value": 6360, "unit": "ng·h/mL"},
      {"measurement": "Activity", "setting": "TMD8 [8]", "value": 2.37, "unit": "%"},
      {"measurement": "IC50", "setting": "Rec1", "value": 35, "unit": "nM"},
      {"measurement": "inhibition (INH)", "setting": "[9]", "value": "Not Active"},
      {"measurement": "IC50", "setting": "TMD8 [10]", "value": 25, "unit": "nM"},
      {"measurement": "inhibition (INH)", "setting": "[11]", "value": "Not Active"},
      {"measurement": "Activity", "setting": "TMD8 [12]", "value": 4.69, "unit": "%"},
      {"measurement": "inhibition (INH)", "setting": "[13]", "value": "Not Active"},
      {"measurement": "Activity", "setting": "[14]", "value": "Non-Toxic"},
      {"measurement": "Activity", "setting": "TMD8 [15]", "value": 54.21, "unit": "%"},
      {"measurement": "IC50", "setting": "MOLM-13", "value": 3700, "unit": "nM"},
      {"measurement": "Activity", "setting": "TMD8 [16]", "value": 84.36, "unit": "%"},
      {"measurement": "concentration at 2 h", "setting": "[17]", "value": 640, "unit": "nM"},
      {"measurement": "IC50", "setting": "Cytochrome P450 1A2", "value": "> 10000", "unit": "nM"},
      {"measurement": "IC50", "setting": "Cytochrome P450 3A4", "value": "> 10000", "unit": "nM"},
      {"measurement": "inhibition (INH)", "setting": "[18]", "value": "Not Active"},
      {"measurement": "inhibition", "setting": "[19]", "value": "> 80", "unit": "%"},
      {"measurement": "IC50", "setting": "Ramos", "value": 2500, "unit": "nM"},
      {"measurement": "Occ", "setting": "[20]", "value": 95, "unit": "%"},
      {"measurement": "Activity", "setting": "TMD8 [21]", "value": 37.86, "unit": "%"},
      {"measurement": "IC50", "setting": "Pfeiffer", "value": 2500, "unit": "nM"},
      {"measurement": "Cmax", "setting": "[22]", "value": 2380, "unit": "nM"},
      {"measurement": "Occ", "setting": "[23]", "value": 58, "unit": "%"},
      {"measurement": "Activity", "setting": "TMD8 [24]", "value": 93.84, "unit": "%"},
      {"measurement": "Activity", "setting": "[25]", "value": "Non-Toxic"}
    ]}
  ]
}
